Results on four compounds are retold here after patent US8314113B2, “Substituted dihydroquinazolines II” (Aicuris GmbH & Co. KG, priority 2003, dated 2012).

Data set [1] has as its system HCMV. The data set can be described thus: Anti-HCMV cytopathogenicity test (CPE inhibition). Format: cell-based, human cytomegalovirus. Particulars: for pEC50: read-out: HCMV EC50; for SI HCMV (selectivity index = CC50 (NHDF)/EC50 (HCMV)): ratio CC50 (NHDF)/EC50 (HCMV). The procedure: Anti-HCMV (Anti-Human Cytomegalovirus) Cytopathogenicity Tests The test compounds are employed as 50 millimolar (mM) solutions in dimethyl sulphoxide (DMSO). Ganciclovir, Foscarnet and Cidofovir are used as reference compounds. After addition of in each case 2 μl of the 50, 5, 0.5 and 0.05 mM DMSO stock solutions to 98 μl portions of cell culture medium in row […] for duplicate determinations, 1:2 dilutions are carried out with 50 μl portions of medium up to row 11 of the 96-well plate. The wells in rows 1 and 12 each contain 50 μl of medium. Then 150 μl portions of a suspension of 1×10^4 cells (human prepuce fibroblasts [NHDF]) are pipetted into each of the wells (row 1=cell control) and, in rows 2-12, a mixture of HCMV-infected and uninfected NHDF cells (M.O.I.=0.001-0.002), i.e. 1-2 infected cells-per 1000 uninfected cells. Row 12 (without substance) serves as virus control. The final test concentrations are 250-0.0005 μM. The plates are incubated at 37° C./5% CO2 for 6 days, i.e. until all the cells are infected in the virus controls (100% cytopathogenic effect [CPE]). The wells are then fixed and stained by adding a mixture of formalin and Giemsa's dye (30 minutes), washed with double-distilled water and dried in a drying cabinet at 50° C. The plates are then assessed visually using an overhead microscope (Plaque Multiplier from Technomara). The following data can be acquired from the test plates: EC50 (HCMV)=substance concentration in μM which inhibits the CPE (cytopathic effect) by 50% compared with the untreated virus control;
For orientation: Cytopathic effects are the visible damage that an infection or toxin causes in cultured cells.

Data set [2] can be described thus: Cytotoxicity on NHDF cells in the anti-HCMV cytopathogenicity test. The format is cell-based. Particulars: NHDF cells (human prepuce fibroblasts), visual assessment, concentration at which no visible cytostatic effects are evident. As for the experimental part: Anti-HCMV (Anti-Human Cytomegalovirus) Cytopathogenicity Tests The test compounds are employed as 50 millimolar (mM) solutions in dimethyl sulphoxide (DMSO). Ganciclovir, Foscarnet and Cidofovir are used as reference compounds. After addition of in each case 2 μl of the 50, 5, 0.5 and 0.05 mM DMSO stock solutions to 98 μl portions of cell culture medium in row […] for duplicate determinations, 1:2 dilutions are carried out with 50 μl portions of medium up to row 11 of the 96-well plate. The wells in rows 1 and 12 each contain 50 μl of medium. Then 150 μl portions of a suspension of 1×10^4 cells (human prepuce fibroblasts [NHDF]) are pipetted into each of the wells (row 1=cell control) and, in rows 2-12, a mixture of HCMV-infected and uninfected NHDF cells (M.O.I.=0.001-0.002), i.e. 1-2 infected cells-per 1000 uninfected cells. Row 12 (without substance) serves as virus control. The final test concentrations are 250-0.0005 μM. The plates are incubated at 37° C./5% CO2 for 6 days, i.e. until all the cells are infected in the virus controls (100% cytopathogenic effect [CPE]). The wells are then fixed and stained by adding a mixture of formalin and Giemsa's dye (30 minutes), washed with double-distilled water and dried in a drying cabinet at 50° C. The plates are then assessed visually using an overhead microscope (Plaque Multiplier from Technomara). The following data can be acquired from the test plates: CC50 (NHDF)=substance concentration in μM at which no visible cytostatic effects on the cells are evident by comparison with the untreated cell control;

Where [3] appears, read: Human betaherpesvirus 5, NHDF, 144 h.
Where [4] appears, read: Human betaherpesvirus 5, 144 h, HCMV-infected NHDF cells, M.O.I. 0.001-0.002, 6 days, 50% inhibition of CPE.

Each structure is given as a SMILES string. pEC50: −log10 of the molar value. Counter-ions that a name gives are not always drawn. Like-named read-outs stand apart in the source and are kept apart here.

With `COc1ccc(C(F)(F)F)cc1N1C(C2CCN(c3ccc(F)c(C)c3)CC2)=Nc2c(F)cccc2C1CC(=O)O` (racemic) [Example 1, {8-Fluoro-2-[1-(4-fluoro-3-methylphenyl)piperidin-4-yl]-3-[2-methoxy-5-(trifluoromethyl)phenyl]-3,4-dihydroquinazolin-4-yl}acetic acid hydrochloride], in data set [1] (setting [3]), the negative-log EC50 (pEC50) is 7.52. The “SI HCMV (selectivity index = CC50 (NHDF)/EC50 (HCMV))” value in data set [1] was found to be 800. In data set [2], this compound came in with a 50% cytotoxic concentration (CC50) at 6 days of 24 µM.
For `COc1ccc(C(F)(F)F)cc1N1C(C2CCN(c3ccc(F)c(C)c3)CC2)=Nc2c(F)cccc2C1CC(=O)O` (stereo not drawn) [Example 2, {8-Fluoro-2-[1-(4-fluoro-3-methylphenyl)piperidin-4-yl]-3-[2-methoxy-5-(trifluoromethyl)phenyl]-3,4-dihydroquinazolin-4-yl}acetic acid hydrochloride], the negative logarithm of the EC50 (pEC50) in data set [1] (setting [3]) was 7.40. The “SI HCMV (selectivity index = CC50 (NHDF)/EC50 (HCMV))” value in data set [1] is reported as 775. Half-maximal cytotoxicity in data set [2] (CC50 at 6 days) was put at 31 µM.
As to `COc1ccc(C(F)(F)F)cc1N1C(C2CCN(c3cccc(C)c3)CC2)=Nc2c(F)cccc2C1CC(=O)O` (stereo not drawn) [Example 3, {8-Fluoro-3-[2-methoxy-5-(trifluoromethyl)phenyl]-2-[1-(3-methylphenyl)piperidin-4-yl]-3,4dihydroquinazolin-4-yl}acetic acid], the negative logarithm of the EC50 (pEC50) in data set [1] (setting [4]) was 7.00. In addition, the “SI HCMV (selectivity index = CC50 (NHDF)/EC50 (HCMV))” value in data set [1] is given as 310. In data set [2], half-maximal cytotoxicity (CC50 at 6 days) was put at 31 µM.
Consider `COc1ccc(C(F)(F)F)cc1N1C(C2CCN(c3ccc(F)cc3)CC2)=Nc2c(F)cccc2C1CC(=O)O` (stereo not drawn) [Example 4, {8-Fluoro-2-[1-(4-fluorophenyl)piperidin-4-yl]-3-[2-methoxy-5-(trifluoromethyl)-phenyl]-3,4-dihydroquinazolin-4-yl}acetic acid], for which the pEC50 in data set [1] (setting [4]) was 6.82. Moreover, the “SI HCMV (selectivity index = CC50 (NHDF)/EC50 (HCMV))” value in data set [1] came out at 237. The same compound yielded a CC50 at 6 days in data set [2] of 36 µM.

The term pEC50 denotes the EC50 on a negative log10 scale, so that one unit is a factor of ten. Broadly, the CC50 is the concentration that lowers cell viability or growth by half. A lower CC50 goes with harm at low concentration.
